According to US11072602B2, “Antidiabetic heterocyclic compounds” (Merck Sharp & Dohme Corp., priority 2016, dated 2021):

The molecules below were run against T1, human GPR40 (Homo sapiens, UniProt O14842) (assay: Inositol Phosphate Turnover (IP1) Assay). Details: HEK cells stably expressing human GPR40, 7500 cells per well, CisBio IP-One kit.
T1 construct: expressed in transfected cells
T1 sequence (O14842 whole entry): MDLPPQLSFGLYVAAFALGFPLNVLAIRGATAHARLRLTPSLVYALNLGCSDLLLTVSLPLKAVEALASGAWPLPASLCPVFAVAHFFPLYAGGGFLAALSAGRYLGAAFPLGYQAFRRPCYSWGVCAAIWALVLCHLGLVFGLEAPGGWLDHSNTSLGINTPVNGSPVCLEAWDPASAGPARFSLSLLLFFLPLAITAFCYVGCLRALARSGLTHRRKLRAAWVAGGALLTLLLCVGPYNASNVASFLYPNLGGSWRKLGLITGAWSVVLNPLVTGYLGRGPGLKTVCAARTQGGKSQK
Format: cell-based
Protocol: Human GPR40 stable cell-lines were generated in HEK cells. The expression plasmids were transfected using lipofectamine (Life Technologies) following manufacturer's instructions. Stable cell-lines were generated following drug selection and single cell cloning.
The assay was performed in 384-well format. HEK cells stably expressing human GPR40 were plated at 7500 cells per well in growth medium (DMEM/10% fetal calf serum). Cell plates were then incubated 16 hours at 37 degrees in a 5% CO2 incubator. Measurement of Inositol Phosphate Turnover (IP1) was performed using the CisBio IP-One kit (Part number 62IPAPEB). After the 16 hour incubation, the growth media was removed by centrifugation using the BlueWasher (AusWasher GUI Ver. v1.0.1.8) Protocol #21-“Light Dry” and 10 ul of stimulation buffer (prepared as described in the kit) was added to each well. In a separate plate, compounds were diluted in DMSO (200-fold over the final concentration in the assay well) and 50 nl was acoustically transferred to the appropriate well in the assay cell plate. The plates were then incubated for 60 minutes at 37 degrees in a 5% CO2 incubator. 10 ul of detection buffer (also prepared as described in the IP-One kit) was added to each well and the plates were incubated at room temperature for 60 minutes in the dark. The plates were then read in a Perkin Elmer EnVision or equivalent reader able to measure FRET. Fluorescent ratio of emission at 665 and 620 nm was then converted to IP1 concentration by back calculating from an IP1 standard curve prepared at the time of the assay. Data was normalized to % activity using a reference compound and EC50s determined using a standard 4-parameter fit.
Molecule `C[C@H](C(=O)O)[C@H](c1ccc2c(c1)OC(CC1CCN([C@H](C)c3cc(C(F)(F)F)ccc3C(F)(F)F)CC1)CC2)C1CC1` (single isomer, unassigned) [Example 10, (2S,3R)-3-((R or S)-2-((1-((R)-1-(2,5-bis(trifluoromethyl)phenyl)ethyl)piperidin-4-yl)-methyl)chroman-7-yl)-3-cyclopropyl-2-methylpropanoic Acid] has an EC50 of 29.3 nM. `C[C@H](C(=O)O)[C@H](c1ccc2c(c1)OC(CC1CCN([C@H](C)c3cc(C(F)(F)F)ccc3C(F)(F)F)CC1)CC2)C1CC1` (single isomer, unassigned) [Example 11, (2S,3R)-3-((S or R)-2-((1-((R)-1-(2,5-bis(trifluoromethyl)phenyl)ethyl)piperidin-4-yl)methyl)chroman-7-yl)-3-cyclopropyl-2-methylpropanoic Acid] showed an EC50 of 14.1 nM. In the case of `C[C@H](C(=O)O)[C@H](c1ccc2c(c1)OC(C1CC3CC1CN3[C@H](C)c1cc(F)ccc1C(F)(F)F)CC2)C1CC1` (single isomer, unassigned) [Example 20], the EC50 is reported as 13.4 nM. `C[C@H](C(=O)O)[C@H](c1ccc2c(c1)OC(C1CC3CC1CN3[C@H](C)c1cc(F)ccc1C(F)(F)F)CC2)C1CC1` (single isomer, unassigned) [Example 21] was tested, and the EC50 was 3.14 nM. For `C[C@H](C(=O)O)[C@H](c1ccc2c(c1)OC(C1[C@@H]3CC[C@@H]1CN([C@@H](C)c1cc(C(F)(F)F)ccc1C(F)(F)F)C3)CC2)C1CC1` (single isomer, unassigned) [Example 24], the EC50 was 9.66 nM. `C[C@H](C(=O)O)[C@H](c1ccc2c(c1)OC(C1[C@@H]3CC[C@@H]1CN([C@@H](C)c1cc(C(F)(F)F)ccc1C(F)(F)F)C3)CC2)C1CC1` (single isomer, unassigned) [Example 25] gave an EC50 of 67.3 nM. In the case of `C[C@H](C(=O)O)[C@H](c1ccc2c(c1)OC(C1[C@@H]3CC[C@H]1CN([C@@H](C)c1cc(F)ccc1C(F)(F)F)C3)CC2)C1CC1` (single isomer, unassigned) [Example 26], the EC50 is reported as 9.68 nM. `C[C@H](C(=O)O)[C@H](c1ccc2c(c1)OC(C1[C@@H]3CC[C@@H]1CN([C@@H](C)c1cc(F)ccc1C(F)(F)F)C3)CC2)C1CC1` (single isomer, unassigned) [Example 27, (2S,3R)-3-cyclopropyl-3-((2R or 2S)-2-((1R,5S)-3-((S)-1-(5-fluoro-2-(trifluoromethyl)phenyl)ethyl)-3-azabicyclo[3.2.1]-octan-8-yl)chroman-7-yl)-2-methylpropanoic acid] gave an EC50 of 20.2 nM. In the case of `C[C@H](C(=O)O)[C@H](c1ccc2c(c1)OC(C1[C@@H]3CC[C@@H]1CN([C@@H](C)c1cc(F)ccc1C(F)(F)F)C3)CC2)C1CC1` (single isomer, unassigned) [Example 28, (2S,3R)-3-cyclopropyl-3-((2R or 2S)-2-((1R,5S)-3-((S)-1-(5-fluoro-2-(trifluoromethyl)phenyl)ethyl)-3-azabicyclo[3.2.1]-octan-8-yl)chroman-7-yl)-2-methylpropanoic acid], the EC50 is reported as 28.7 nM. Work on `C[C@H](C(=O)O)[C@H](c1ccc2c(c1)OC(C1[C@@H]3CC[C@H]1CN([C@@H](C)c1cc(F)ccc1C(F)(F)F)C3)CC2)C1CC1` (single isomer, unassigned) [Example 29] yielded an EC50 of 72.8 nM. In the case of `C[C@H](C(=O)O)[C@H](c1ccc2c(c1)OC(C1[C@@H]3CC[C@@H]1CN([C@@H](C)c1cc(F)ccc1C(F)(F)F)C3)CC2)C1CC1` (single isomer, unassigned) [Example 30, (2S,3R)-3-cyclopropyl-3-((2R or 2S)-2-((1R,5S)-3-((S)-1-(5-fluoro-2-(tri-fluoromethyl)phenyl)eth-yl)-3-azabicyclo[3.2.1]-octan-8-yl)chroman-7-yl)-2-methylpropanoic acid], the EC50 is reported as 453 nM. Work on `C[C@H](C(=O)O)[C@H](c1ccc2c(c1)OC(C1[C@@H]3CC[C@@H]1CN([C@@H](C)c1cc(F)ccc1C(F)(F)F)C3)CC2)C1CC1` (single isomer, unassigned) [Example 31, (2S,3R)-3-cyclopropyl-3-((2R or 2S)-2-((1R,5S)-3-((S)-1-(5-fluoro-2-(trifluoromethyl)phenyl)ethyl)-3-azabicyclo[3.2.1]-octan-8-yl)chroman-7-yl)-2-methylpropanoic acid] yielded an EC50 of 32.6 nM. With `CC(C(=O)O)C(c1ccc2c(c1)OC(C1CC3CCCC(C1)N3C(C)c1cc(F)ccc1C(F)(F)F)CC2)C1CC1` (single isomer, unassigned) [Example 34] the EC50 was 29.4 nM. Molecule `CC(C(=O)O)C(c1ccc2c(c1)OC(C1CC3CCCC(C1)N3C(C)c1cc(F)ccc1C(F)(F)F)CC2)C1CC1` (single isomer, unassigned) [Example 35] has an EC50 of 90.9 nM. With `CC(c1cc(Cl)ccc1C(F)(F)F)N1C[C@H]2CC1CC2C1CCc2ccc([C@H](C3CC3)[C@H](C)C(=O)O)cc2O1` (single isomer, unassigned) [Example 36, (2S,3R)-3-((S or R)-2-((R or S, R or S)-2-(1-(5-chloro-2-(trifluoromethyl)-phenyl)-ethyl)-2-azabicyclo[2.2.1]heptan-5-yl)chroman-7-yl)-3-cyclopropyl-2-methylpropanoic Acid] the EC50 was 12.3 nM. `CC(c1cc(F)ccc1OC(F)(F)F)N1CC2CC1CC2C1CCc2ccc([C@H](C3CC3)[C@H](C)C(=O)O)cc2O1` (single isomer, unassigned) [Example 37, (2S,3R)-3-cyclopropyl-3-((R or S)-2-((R or S,R or S)-2-((RS)-1-(5-fluoro-2-(trifluoro-methoxy)-phenyl)ethyl)-2-aza-bicyclo[2.2.1]heptan-5-yl)-chroman-7-yl)-2-methyl-propanoic acid] was tested, and the EC50 was 71.4 nM. With `C[C@H](C(=O)O)[C@H](c1ccc2c(c1)OC(C13CCN([C@H](C)c4cc(F)ccc4OC(F)(F)F)C(C1)C3)CC2)C1CC1` (single isomer, unassigned) [Example 43] the EC50 was 60.6 nM. `C[C@H](C(=O)O)[C@H](c1ccc2c(c1)OC(C13CCN([C@H](C)c4cc(F)ccc4OC(F)(F)F)C(C1)C3)CC2)C1CC1` (single isomer, unassigned) [Example 44] gave an EC50 of 2.14 nM. `C[C@H](C(=O)O)[C@H](c1ccc2c(c1)OC(C1C3COCC1CN([C@H](C)c1cc(C(F)(F)F)ccc1C(F)(F)F)C3)CC2)C1CC1` (stereo partly drawn) [Example 3, (2S,3R)-3-(2-((1R,5S)-7-((R)-1-(2,5-bis(trifluoromethyl)phenyl)ethyl)-3-oxa-7-azabicyclo[3.3.1]nonan-9-yl)chroman-7-yl)-3-cyclopropyl-2-methylpropanoic acid] was tested, and the EC50 was 20.3 nM. Work on `C[C@H](C(=O)O)[C@H](c1ccc2c(c1)OC(C1C3COCC1CN([C@H](C)c1cc(C(F)(F)F)ccc1C(F)(F)F)C3)CC2)C1CC1` (stereo partly drawn) [Example 4, (2S,3R)-3-(2-((1R,5S)-7-((R)-1-(2,5-bis(trifluoromethyl)phenyl)ethyl)-3-oxa-7-azabicyclo[3.3.1]nonan-9-yl)chroman-7-yl)-3-cyclopropyl-2-methylpropanoic acid] yielded an EC50 of 36.6 nM. In the case of `C[C@H](C(=O)O)[C@H](c1ccc2c(c1)OC(C1C3COCC1CN([C@@H](C)c1cc(C(F)(F)F)ccc1C(F)(F)F)C3)CC2)C1CC1` (stereo partly drawn) [Example 5, (2S,3R)-3-(2-((1R,5S)-7-((S)-1-(2,5-bis(trifluoro-methyl)phenyl)ethyl)-3-oxa-7-azabicyclo[3.3.1]-nonan-9-yl)chroman-7-yl)-3-cyclopropyl-2-methyl-propanoic acid], the EC50 is reported as 33.8 nM.
